Measured values taken from PMC12655633, “Simultaneous Quantification of Multiple Analytes in Rat Plasma by UHPLC–MS/MS Following Oral Administration of Gastrodiae Rhizoma Extract for Pharmacokinetic Evaluation” (Molecules, 2025).

Assay: Pharmacokinetic study in rats after oral administration of GR extract (UHPLC-MS/MS of plasma)
Type: in vivo, Sprague-Dawley rats
Conditions: for plasma concentration relative to LLOQ: rat plasma following gavage of GR extract; for AUC(0-inf) / AUC(0-t) / Cmax / Tmax / k el / half-life: male, Sprague-Dawley, po; for AUC(0-inf) / AUC(0-t) / Cmax / Tmax / k el / half-life / CL (clearance) / T1/2 / Vz (apparent volume of distribution): rat plasma, GR extract 9.6 g/kg intragastric gavage, mean ± SD, n = 6; for k el: read-out: λz (terminal elimination rate constant) (converted); for half-life: rat, plasma, 9.6 g/kg
Method: To each 100 μL plasma sample, 20 μL of methanol and 20 μL of IS (astragalin, 1 μg/mL) were added and vortexed for 1 min. Extraction was carried out with 800 μL of methanol, followed by vortexing for 5 min at room temperature. The sample was centrifuged at 12,000× g for 10 min. Subsequently, 750 µL of supernatant was transferred to a fresh tube and completely dried under flow nitrogen. The residue was reconstituted in 150 μL of 50% methanol (v/v), vortexed for 5 min, and centrifuged for 10 min. Finally, the resulting supernatant was injected into the UHPLC-MS/MS instrument.
In this study, six SPF-grade male Sprague-Dawley rats (six weeks old, 220 ± 10 g), supplied by Beijing HUAFUKANG Bioscience Co., Inc. (Beijing, China), were housed for seven days under controlled conditions (23 ± 2 °C, 50 ± 10% relative humidity) with ad libitum access to food and water. All rats underwent a 12 h fasting period before dosing, but maintained free access to water. This study’s animal care protocols and experimental procedures adhered to institutional policies and were formally authorized by the Animal Ethics Review Committee of Tianjin University of Traditional Chinese Medicine (Tianjin, China; Ref. TCM-LAEC2025003w1430). Each rat received a GR suspension at a dosage of 9.6 g/kg via intragastric gavage. Prior to dosing, 0.2 mL of blood was drawn from the retro-orbital plexus into a heparin-coated tube. Subsequent samples were collected at 0, 0.03, 0.08, 0.17, 0.25, 0.5, 0.75, 1, 2, 4, 6, 8, 12, 24, 36, and 48 h post-dose. Plasma was separated by centrifugation (6000× g, 10 min, 4 °C) and stored at −80 °C until further analysis.
Plasma concentrations of the fourteen target analytes were determined using the MassHunter Workstation (Agilent, USA; ver. B.09.00). Pharmacokinetic analysis was conducted with DAS software (Medical College of Wannan, Wuhu, Anhui, China; v. 3.0) using non-compartmental model to calculate pharmacokinetic parameters, including Cmax, Tmax, AUC(0–t), AUC(0–∞), clearance (CL), the apparent volume of distribution (Vz), and terminal elimination rate constant (λz) for each analyte. All parameters were summarized as mean ± standard deviation (SD) (n = 6), with the SD representing inter-individual variability in the pharmacokinetic behavior.

Row | Compound | plasma concentration relative to LLOQ | AUC(0-inf) [ng·h/mL] | AUC(0-t) [ng·h/mL] | Cmax [ng/mL] | Tmax [min] | k el [s⁻¹] | half-life [min] | CL (clearance) [L/h/kg] | T1/2 [h] | Vz (apparent volume of distribution) [L/kg]
1 | O=Cc1ccc(O)c(O)c1 [3,4-Dihydroxybenzaldehyde] | below the LLOQ at the majority of time points |  |  |  |  |  |  |  |  | 
2 | Nc1ncnc2c1ncn2[C@@H]1O[C@H](CO)[C@@H](O)[C@H]1O [Adenosine] | below the LLOQ at the majority of time points |  |  |  |  |  |  |  |  | 
3 | COc1cc2c(cc1OC)[C@@H](Cc1ccc(Oc3cc(C[C@@H]4c5cc(OC)c(OC)cc5CCN4C)ccc3O)cc1)N(C)CC2 [Dauricine] | below the LLOQ at the majority of time points |  |  |  |  |  |  |  |  | 
4 | OCc1ccc(O[C@@H]2O[C@H](CO)[C@@H](O)[C@H](O)[C@H]2O)cc1 [Gastrodin] |  | 145000 | 143000 | 31500 | 90 ± 33 | 1.67e-05 | ~480 | 0.14 ± 0.03 | 8.30 ± 1.14 | 4.29 ± 3.24
5 | NC(=O)c1cccnc1 [Nicotinamide] |  | 59 ± 18.5 | 59 ± 18.5 | 25 ± 14.2 | 30 ± 1.2 | 6.11e-05 | 164 ± 25.2 | 370.24 ± 123.45 |  | 1588.63 ± 636.70
6 | COc1ccc(-c2cc(=O)c3c(OC)c(OC)c(OC)c(OC)c3o2)cc1OC [Nobiletin] | below the LLOQ at the majority of time points |  |  |  |  |  |  |  |  | 
7 | O=C(O)CC(O)(CC(=O)OCc1ccc(O[C@@H]2O[C@H](CO)[C@@H](O)[C@H](O)[C@H]2O)cc1)C(=O)OCc1ccc(O[C@@H]2O[C@H](CO)[C@@H](O)[C@H](O)[C@H]2O)cc1 (some centres unmarked) [Parishin B] |  | 460 ± 222 | 460 ± 222 | 319 ± 157 | 6 ± 3.6 | 7.22e-05 | 160 ± 15.6 | 53.95 ± 26.30 |  | 215.10 ± 119.59
8 | O=C(O)CC(O)(CC(=O)OCc1ccc(O[C@@H]2O[C@H](CO)[C@@H](O)[C@H](O)[C@H]2O)cc1)C(=O)O (some centres unmarked) [Parishin E] |  | 13100 | 11600 | 2350 ± 1100 | 45 ± 0.6 | 1.39e-05 | ~480 | 1.58 ± 0.35 | 8.08 ± 3.33 | 41.00 ± 29.24
9 | O=C(CC(O)(CC(=O)OCc1ccc(O[C@@H]2O[C@H](CO)[C@@H](O)[C@H](O)[C@H]2O)cc1)C(=O)OCc1ccc(O[C@@H]2O[C@H](CO)[C@@H](O)[C@H](O)[C@H]2O)cc1)OCc1ccc(O[C@@H]2O[C@H](CO)[C@@H](O)[C@H](O)[C@H]2O)cc1 [ParishinA, Parishin A] |  | 572 ± 271 | 531 ± 256 | 210 ± 92.2 | 13.2 ± 4.2 | 1.39e-05 | 217 ± 15.6 | 40.58 ± 14.65 |  | 808.82 ± 409.11
10 | COc1cc(C=O)cc(OC)c1O [Syringaldehyde] | below the LLOQ at the majority of time points |  |  |  |  |  |  |  |  | 
11 | O=Cc1ccc(O)cc1 [p-Hydroxybenzaldehyde] |  | 59.1 ± 21 | 56.7 ± 23.1 | 22.5 ± 3.04 | 15 ± 0.6 | 7.78e-05 | 352 ± 179 | 377.15 ± 136.83 |  | 4220.87 ± 5603.54
12 | O=C(O)c1ccc(O)cc1 [p-Hydroxybenzoic acid] |  | 1600 ± 384 | 1580 ± 381 | 442 ± 147 | 6.6 ± 3 | 4.44e-05 | 373 ± 200 | 13.08 ± 2.83 |  | 116.74 ± 60.67
13 | OCc1ccc(O)cc1 [p-Hydroxybenzyl alcohol] |  | 674000 | 672000 | 90500 | 97.8 ± 35.4 | 3.89e-05 | 319 ± 93 | 0.03 ± 0.01 |  | 0.24 ± 0.10
